Source: patent US20260297094A1, “Tetracyclic Compounds as SMARCA2 and/or SMARCA4 Degraders” (Aurigene Oncology Limited, priority 2023, published 2026)
Counter-ions that a name gives are not always drawn.

Legend:
SK-MEL-5 cells = experiment: Anti proliferative activity in SK-MEL-5 cells by Cell Titer Glo (Promega) assay; type: cell-based; conditions: retreatment on Day 4, terminated on day 8, CellTiter-Glo
Description: Example-P1: Determination of Anti Proliferative Activity of Compounds in Cell Lines SK-MEL-5 by Cell Titer Glo® (Promega) Assay
Cells were seeded into 96-well plates and the plate was incubated in 37 degrees incubator overnight. The next day, compounds were diluted 3-fold to cover 9-point concentration range in DMSO. Intermediate plate dilution was prepared in media followed with compound treatment in cells. Retreatment of cells with compound dilutions was performed on Day 4 and assay was terminated on day 8 for SK-MEL-5 cells using CellTiter-Glo and the plate was kept on orbital shaker for 20 minutes at RT. Assay was terminated on day 6 for RERF-LC-A1 without a compound retreatment. Luminescence signal was recorded on VICTOR^3 instrument. Percent inhibition of proliferation was calculated at each concentration and plotted against the compound concentration. EC50 value was calculated using GraphPad® software.

MV-4-11 cells = experiment: Anti proliferative activity in MV-4-11 cells by Cell Titer Glo (Promega) assay; type: cell-based; conditions: 3 days, CellTiter-Glo
Description: Example-P2: Determination of Anti Proliferative Activity of Compounds in Cell Lines MV-4-11 by Cell Titer Glo® (Promega) Assay
MV-4-11 (CRL-9591™) cells were seeded in 96 well plate flat black clear bottom plates (Corning, Cat. No 3904) using complete DMEM Medium. Next day, selected compounds of the present invention were added to cells from 10 mM stocks made in DMSO (Sigma Cat no. D2650). Each concentration of compound was tested in triplicate with DMSO concentration at a final percentage not exceeding 0.3 in the cells. After the incubation of MV-4-11 cells with compound for 3 days; assay was terminated using 100 μl of CellTiter Glo® reagent (Promega, Cat. no G7572). CellTiter-Glo® Luminescent reagent determines the number of viable cells based on quantitation of ATP present which is an indicator of cell number and metabolic activity. Luminescence readings were taken in Victor-5 instrument. Percent inhibition of proliferation was calculated using formula, % inhibition=100−(luminescence value of test/luminescence value of DMSO control)*100. DMSO control (0%)=Cells in complete media with DMSO; blank=Media alone containing DMSO. EC50 was calculated using graph pad prism software.

| Compound | EC50 (SK-MEL-5 cells; Homo sapiens) [nM] | EC50 (MV-4-11 cells; Homo sapiens, MV4-11, 72 h) [nM] | EC50 (SK-MEL-5 cells) [nM] | EC50 (MV-4-11 cells) [nM] |
| --- | --- | --- | --- | --- |
| O=C1CCC(N2C(=O)c3ccc(N4CCN(c5ccc6c(c5)n(C5CCCC5)c5nc(=O)c7c(Br)cccc7n65)CC4)cc3C2=O)C(=O)N1 (centres unmarked) [Compound 5, 5-(4-(4-bromo-7-cyclopentyl-5-oxo-5,7-dihydrobenzo[4,5]imidazo[1,2-a]quinazolin-9-yl)piperazin-1-yl)-2-(2,6-dioxopiperidin-3-yl)isoindoline-1,3-dione] | > 100 | > 100 |  |  |
| O=C1CCC(N2Cc3cc(C4CCN(C5CCN(c6ccc7c(c6)n(C6CCCC6)c6nc(=O)c8ccccc8n76)CC5)CC4)ccc3C2=O)C(=O)N1 (centres unmarked) [Compound 10, 3-(5-(1′-(7-cyclopenty1-5-oxo-5,7-dihydrobenzo[4,5]imidazo[1,2-a]quinazolin-9-yl)-[1,4′-bipiperidin]-4-yl)-1-oxoisoindolin-2-yl)piperidine-2,6-dione] | > 100 | > 100 |  |  |
| COc1cccc2c1c(=O)nc1n(C3CCCC3)c3cc(N4CCC(N5CCC(c6ccc(NC7CCC(=O)NC7=O)cc6F)CC5)CC4)ccc3n21 (centres unmarked) [Compound 11, 3-((4-(1′-(7-cyclopentyl-4-methoxy-5-oxo-5,7-dihydrobenzo[4,5]imidazo[1,2-a]quinazolin-9-yl)-[1,4′-bipiperidin]-4-yl)-3-fluorophenyl)amino)piperidine-2,6-dione] | > 100 | > 100 |  |  |
| O=C1CCC(Nc2ccc(C3CCN(C4CCN(c5ccc6c(c5)n(C5CCCC5)c5nc(=O)c7c(O)cccc7n65)CC4)CC3)c(F)c2)C(=O)N1 (centres unmarked) [Compound 12, 3-((4-(1′-(7-cyclopentyl-4-hydroxy-5-oxo-5,7-dihydrobenzo[4,5]imidazo[1,2-a]quinazolin-9-yl)-[1,4′-bipiperidin]-4-yl)-3-fluorophenyl)amino)piperidine-2,6-dione-HCl salt] | > 100 | > 100 |  |  |
| O=C1CCC(c2ccc(C3CCN(C4CCN(c5ccc6c(c5)n(C5CCCC5)c5nc(=O)c7c(C(F)(F)F)cccc7n65)CC4)CC3)cc2)C(=O)N1 (centres unmarked) [Compound 13, 3-(4-(1′-(7-cyclopentyl-5-oxo-4-(trifluoromethyl)-5,7-dihydrobenzo[4,5]imidazo[1,2-a]quinazolin-9-yl)-[1,4′-bipiperidin]-4-yl)phenyl)piperidine-2,6-dione] | > 100 | > 100 |  |  |
| O=C1CCC(N2Cc3cc(C4CCN(C5CCN(c6ccc7c(c6)n(C6CCCC6)c6nc(=O)c8cnccc8n76)CC5)CC4)ccc3C2=O)C(=O)N1 (centres unmarked) [Compound 19, 3-(5-(1′-(7-cyclopentyl-5-oxo-5,7-dihydrobenzo[4,5]imidazo[1,2-a]pyrido[3,4-e]pyrimidin-9-yl)-[1,4′-bipiperidin]-4-yl)-1-oxoisoindolin-2-yl)piperidine-2,6-dione] | > 100 | > 100 |  |  |
| O=C1CCC(c2ccc(C3CCN(C4CCN(c5ccc6c(c5)n(C5CCCC5)c5nc(=O)c7ncccc7n65)CC4)CC3)cc2)C(=O)N1 (centres unmarked) [Compound 24, 3-(4-(1′-(7-cyclopentyl-5-oxo-5,7-dihydrobenzo[4,5]imidazo[1,2-a]pyrido[2,3-e]pyrimidin-9-yl)-[1,4′-bipiperidin]-4-yl)phenyl)piperidine-2,6-dione] | > 100 | > 100 |  |  |
| Cn1c2cc(N3CCC(N4CCC(c5ccc6c(c5)CN(C5CCC(=O)NC5=O)C6=O)CC4)CC3)ccc2n2c3cccc(Cl)c3c(=O)nc12 (centres unmarked) [Compound 27, 3-(5-(1′-(4-chloro-7-methyl-5-oxo-5,7-dihydrobenzo[4,5]imidazo[1,2-a]quinazolin-9-yl)-[1,4′-bipiperidin]-4-yl)-1-oxoisoindolin-2-yl)piperidine-2,6-dione] | < 10 | < 10 |  |  |
| CC(C)n1c2cc(N3CCC(N4CCC(c5ccc6c(c5)CN(C5CCC(=O)NC5=O)C6=O)CC4)CC3)ccc2n2c3cccc(Cl)c3c(=O)nc12 (centres unmarked) [Compound 28, 3-(5-(1′-(4-chloro-7-isopropyl-5-oxo-5,7-dihydrobenzo[4,5]imidazo[1,2-a]quinazolin-9-yl)-[1,4′-bipiperidin]-4-yl)-1-oxoisoindolin-2-yl)piperidine-2,6-dione-HCl salt] | < 10 | < 10 |  |  |

Other lines, results leading:

| EC50 (SK-MEL-5 cells; Homo sapiens) [nM] | EC50 (MV-4-11 cells; Homo sapiens, MV4-11, 72 h) [nM] | EC50 (SK-MEL-5 cells) [nM] | EC50 (MV-4-11 cells) [nM] | Compound |
| --- | --- | --- | --- | --- |
| > 100 | > 100 |  |  | Nc1cccc2c1c(=O)nc1[nH]c3cc(N4CCC(N5CCC(c6ccc(C7CCC(=O)NC7=O)cc6)CC5)CC4)ccc3n12 (centres unmarked) [Compound 31, 3-(4-(1′-(4-amino-5-oxo-5,7-dihydrobenzo[4,5]imidazo[1,2-a]quinazolin-9-yl)-[1,4′-bipiperidin]-4-yl)phenyl)piperidine-2,6-dione-TFA salt] |
| > 100 | > 100 |  |  | Cc1cccc2c1c(=O)nc1n(C3CCCC3)c3cc(N4CCC(N5CCC(c6ccc(NC7CCC(=O)NC7=O)cc6F)CC5)CC4)ccc3n21 (centres unmarked) [Compound 33, 3-((4-(1′-(7-cyclopentyl-4-methyl-5-oxo-5,7-dihydrobenzo[4,5]imidazo[1,2-a]quinazolin-9-yl)-[1,4′-bipiperidin]-4-yl)-3-fluorophenyl)amino)piperidine-2,6-dione] |
| > 100 | > 100 |  |  | O=C1CCC(Nc2ccc(C3CCN(C4CCN(c5ccc6c(c5)[nH]c5nc(=O)c7c(Br)cccc7n56)CC4)CC3)c(F)c2)C(=O)N1 (centres unmarked) [Compound 34, 3-((4-(1′-(4-bromo-5-oxo-5,7-dihydrobenzo[4,5]imidazo[1,2-a]quinazolin-9-yl)-[1,4′-bipiperidin]-4-yl)-3-fluorophenyl)amino)piperidine-2,6-dione] |
| > 100 | > 100 |  |  | Nc1cccc2c1c(=O)nc1n(C3CC3)c3cc(N4CCC(N5CCN(c6ccc(NC7CCC(=O)NC7=O)cc6F)CC5)CC4)ccc3n21 (centres unmarked) [Compound 37, 3-((4-(4-(1-(4-amino-7-cyclopropyl-5-oxo-5,7-dihydrobenzo[4,5]imidazo[1,2-a]quinazolin-9-yl)piperidin-4-yl)piperazin-1-yl)-3-fluorophenyl)amino)piperidine-2,6-dione] |
|  |  | < 10 | < 10 | O=C1CCC(Nc2ccc(C3CCN(C4CCN(c5ccc6c(c5)n(C5CCCC5)c5nc(=O)c7c(Cl)cccc7n65)CC4)CC3)c(F)c2)C(=O)N1 (centres unmarked) [Compound 38, 3-((4-(1′-(4-chloro-7-cyclopentyl-5-oxo-5,7-dihydrobenzo[4,5]imidazo[1,2-a]quinazolin-9-yl)-[1,4′-bipiperidin]-4-yl)-3-fluorophenyl)amino)piperidine-2,6-dione] |
| > 100 | > 100 |  |  | O=C1CCC(NC(=O)c2ccc(C3CCN(C4CCN(c5ccc6c(c5)n(C5CCCC5)c5nc(=O)c7c(Cl)cccc7n65)CC4)CC3)cc2F)C(=O)N1 (centres unmarked) [Compound 39, 4-(1′-(4-chloro-7-cyclopentyl-5-oxo-5,7-dihydrobenzo[4,5]imidazo[1,2-a]quinazolin-9-yl)-[1,4′-bipiperidin]-4-yl)-N-(2,6-dioxopiperidin-3-yl)-2-fluorobenzamide] |
| > 100 | > 100 |  |  | Cn1nc(N2CCC(=O)NC2=O)c2cc(F)c(N3CCN(C4CCN(c5ccc6c(c5)n(C)c5nc(=O)c7c(N)cccc7n65)CC4)CC3)cc21 [Compound 41, 1-(6-(4-(1-(4-amino-7-methyl-5-oxo-5,7-dihydrobenzo[4,5]imidazo[1,2-a]quinazolin-9-yl)piperidin-4-yl)piperazin-1-yl)-5-fluoro-1-methyl-1H-indazol-3-yl)dihydropyrimidine-2,4(1H,3H)-dione] |
| > 100 | > 100 |  |  | Cn1c2cc(N3CCC(N4CCN(c5ccc6c(c5)CN(C5CCC(=O)NC5=O)C6=O)CC4)CC3)ccc2n2c3cccc(N)c3c(=O)nc12 (centres unmarked) [Compound 42, 3-(5-(4-(1-(4-amino-7-methyl-5-oxo-5,7-dihydrobenzo[4,5]imidazo[1,2-a]quinazolin-9-yl)piperidin-4-yl)piperazin-1-yl)-1-oxoisoindolin-2-yl)piperidine-2,6-dione] |
| > 100 | > 100 |  |  | Cn1c2cc(N3CCN(CC4CCN(c5ccc6c(c5)CN(C5CCC(=O)NC5=O)C6=O)CC4)CC3)ccc2n2c3cccc(N)c3c(=O)nc12 (centres unmarked) [Compound 43, 3-(5-(4-((4-(4-amino-7-methyl-5-oxo-5,7-dihydrobenzo[4,5]imidazo[1,2-a]quinazolin-9-yl)piperazin-1-yl)methyl)piperidin-1-yl)-1-oxoisoindolin-2-yl)piperidine-2,6-dione] |
| < 10 | > 100 |  |  | Cn1c2cc(N3CCC(N4CCN(c5ccc(NC6CCC(=O)NC6=O)cc5F)CC4)CC3)ccc2n2c3cccc(Cl)c3c(=O)nc12 (centres unmarked) [Compound 46, 3-((4-(4-(1-(4-chloro-7-methyl-5-oxo-5,7-dihydrobenzo[4,5]imidazo[1,2-a]quinazolin-9-yl)piperidin-4-yl)piperazin-1-yl)-3-fluorophenyl)amino)piperidine-2,6-dione] |
